Columns and labels:
[1] = biological target: T1, rat μ (C6-MOR) opioid receptor (Rattus norvegicus, UniProt P33535); assay: Radioligand binding assay, [3H]diprenorphine displacement, MOR; settings: displacement of 0.2 nM [3H]diprenorphine, C6-MOR membranes; mean ± standard error
T1 construct: expressed in transfected cells
Protocol: (§1) In Vitro Pharmacology-Cell Lines and Membrane Preparations. All tissue culture reagents were purchased from Gibco Life Sciences (Grand Island, N.Y., U.S.). C6-rat glioma cells stably transfected with a rat μ (C6-MOR) or rat δ (C6-DOR) opioid receptor20 and Chinese hamster ovary (CHO) cells stably expressing a human K (CHO-KOR) opioid receptor21 were used for all in vitro assays. Cells were grown to confluence at 37° C. in 5% CO2 in Dulbecco's modified Eagle medium containing 10% fetal bovine serum and 5% penicillin/streptomycin. Membranes were prepared by washing confluent cells three times with ice cold phosphate buffered saline (0.9% NaCl, 0.61 mM Na2HPO4, 0.38 mM KH2PO4, pH 7.4). Cells were detached from the plates by incubation in warm harvesting buffer (20 mM HEPES, 150 mM NaCl, 0.68 mM EDTA, pH 7.4) and pelleted by centrifugation at 200 g for 3 min. The cell pellet was suspended in ice-cold 50 mM Tris-HCl buffer, pH 7.4, and homogenized with a Tissue Tearor (Biospec Products, Inc., Bartlesville, Okla., U.S.) for 20 s at setting 4. The homogenate was centrifuged at 20 000 g for 20 min at 4° C., and the pellet was rehomogenized in 50 mM Tris-HCl with a Tissue Tearor for 10 s at setting 2, followed by recentrifugation. The final pellet was resuspended in 50 mM Tris-HCl and frozen in aliquots at […]. Protein concentration was determined via Bradford assay using bovine serum albumin as the standard.
(§2) Radioligand Binding Assays. Radioactive compounds were purchased from Perkin-Elmer (Waltham, Mass., U.S.). Opioid ligand binding assays were performed using competitive displacement of 0.2 nM [3H]diprenorphine (250 μCi, 1.85 TBq/mmol) by the test compound from membrane preparations containing opioid receptors. The assay mixture, containing membrane suspension (20 μg protein/tube) in 50 mM Tris-HCl buffer (pH 7.4), [3H]diprenorphine, and various concentrations of test peptide, was incubated at room temperature for 1 h to allow binding to reach equilibrium. The samples were rapidly filtered through Whatman GF/C filters using a Brandel harvester (Brandel, Gaithersburg, Md., U.S.) and washed three times with 50 mM Tris-HCl buffer. The radioactivity retained on dried filters was determined by liquid scintillation counting after saturation with EcoLume liquid scintillation cocktail in a Wallac 1450 MicroBeta (Perkin-Elmer, Waltham, Mass., U.S.). Nonspecific binding was determined using 10 μM naloxone. Inhibitory constant (Ki) values were calculated using nonlinear regression analysis to fit a logistic equation to the competition data using GraphPad Prism, version 5.01, for Windows (GraphPad Software Inc., La Jolla, Calif.). The results presented are the mean±standard error from at least three separate assays performed in duplicate.

[2] = biological target: T2, rat δ (C6-DOR) opioid receptor (Rattus norvegicus, UniProt P33533); assay: Radioligand binding assay, [3H]diprenorphine displacement, DOR; settings: displacement of 0.2 nM [3H]diprenorphine, C6-DOR membranes; mean ± standard error
T2 construct: expressed in transfected cells
T2 sequence (P33533 whole entry): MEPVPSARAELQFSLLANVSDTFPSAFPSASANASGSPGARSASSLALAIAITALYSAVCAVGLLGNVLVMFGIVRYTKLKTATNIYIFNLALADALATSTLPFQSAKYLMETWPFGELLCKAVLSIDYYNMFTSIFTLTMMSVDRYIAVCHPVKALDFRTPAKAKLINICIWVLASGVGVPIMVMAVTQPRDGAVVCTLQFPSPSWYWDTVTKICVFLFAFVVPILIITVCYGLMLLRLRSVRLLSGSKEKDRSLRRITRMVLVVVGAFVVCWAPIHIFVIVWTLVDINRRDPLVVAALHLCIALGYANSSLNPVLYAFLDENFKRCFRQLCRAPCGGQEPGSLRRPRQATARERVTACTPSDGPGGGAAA
Protocol: as §1, §2

[3] = biological target: T3, human κ (CHO-KOR) opioid receptor (Homo sapiens, UniProt P41145); assay: Radioligand binding assay, [3H]diprenorphine displacement, KOR; settings: displacement of 0.2 nM [3H]diprenorphine, CHO-KOR membranes; mean ± standard error
T3 construct: expressed in transfected cells
T3 sequence (P41145 whole entry): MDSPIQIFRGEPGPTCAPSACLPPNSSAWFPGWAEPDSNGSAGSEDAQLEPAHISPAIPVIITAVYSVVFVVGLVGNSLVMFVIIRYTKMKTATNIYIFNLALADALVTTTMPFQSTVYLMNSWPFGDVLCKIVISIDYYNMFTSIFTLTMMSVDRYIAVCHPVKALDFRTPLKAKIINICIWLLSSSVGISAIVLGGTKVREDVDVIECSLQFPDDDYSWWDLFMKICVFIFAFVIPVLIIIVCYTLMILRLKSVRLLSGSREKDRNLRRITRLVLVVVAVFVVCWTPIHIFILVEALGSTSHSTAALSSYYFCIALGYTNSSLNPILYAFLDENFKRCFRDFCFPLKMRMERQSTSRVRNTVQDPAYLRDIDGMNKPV
Protocol: as §1, §2

[4] = biological target: T1, rat μ (C6-MOR) opioid receptor; assay: Stimulation of [35S]GTPγS binding, MOR; format: biochemical; settings: for EC50: [35S]GTPγS binding, C6-MOR membranes, mean ± standard error; for Emax: [35S]GTPγS maximal stimulation compared with 10 μM standard DAMGO
Protocol: as §1
(§3) Stimulation of [^35S]GTPyS Binding. Agonist stimulation of [35S]guanosine 5′-O-[γ-thio]triphosphate ([^35S]GTPγS, 1250 Ci, 46.2 TBq/mmol) binding was measured as described previously Briefly, membranes (10-20 μg of protein/tube) were incubated 1 h at room temperature in GTPyS buffer (50 mM Tris-HCl, 100 mM NaCl, 5 mM MgCl2, pH 7.4) containing 0.1 nM [^35S]GTPγS, 30 μM guanosine diphosphate (GDP), and varying concentrations of test peptides. Peptide stimulation of [^35S]GTPyS was compared with 10 μM standard compounds [D-Ala^2,N-MePhe^4,Gly-ol]encephalin (DAMGO) at MOR, D-Pen^2,5-enkephalin (DPDPE) at DOR, or […] at KOR. The reaction was terminated by rapidly filtering through GF/C filters and washing 10 times with GTPyS buffer, and retained radioactivity was measured as described above. The results presented are the mean±standard error from at least three separate assays performed in duplicate; maximal stimulation was determined using nonlinear regression analysis with GraphPad Prism (GraphPad Software Inc., La Jolla, Calif.).

[5] = biological target: T2, rat δ (C6-DOR) opioid receptor; assay: Stimulation of [35S]GTPγS binding, DOR; format: biochemical; settings: for EC50 / EC50 (nm) DOR: [35S]GTPγS binding, C6-DOR membranes, mean ± standard error; for Emax / % stimulation DOR: [35S]GTPγS maximal stimulation compared with 10 μM standard DPDPE
Protocol: as §1, §3

[6] = biological target: T3, human κ (CHO-KOR) opioid receptor; assay: Stimulation of [35S]GTPγS binding, KOR; format: biochemical
Protocol: as §1, §3

[7] = [35S]GTPγS binding, CHO-KOR membranes, mean ± standard error
[8] = [35S]GTPγS maximal stimulation compared with 10 μM standard U-69,593

T1 sequence (P33535 whole entry): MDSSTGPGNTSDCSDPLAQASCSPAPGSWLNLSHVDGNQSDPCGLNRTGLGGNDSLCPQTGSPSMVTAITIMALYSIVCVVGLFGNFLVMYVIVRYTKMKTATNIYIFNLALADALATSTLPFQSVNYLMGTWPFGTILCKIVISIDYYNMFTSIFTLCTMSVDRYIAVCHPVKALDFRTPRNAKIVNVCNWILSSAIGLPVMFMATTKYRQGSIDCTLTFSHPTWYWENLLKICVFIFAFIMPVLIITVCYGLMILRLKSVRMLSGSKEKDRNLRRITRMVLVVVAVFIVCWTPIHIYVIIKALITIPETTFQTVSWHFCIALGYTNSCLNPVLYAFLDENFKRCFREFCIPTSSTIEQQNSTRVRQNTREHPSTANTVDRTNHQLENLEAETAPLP

SMILES	Ki [1]	Ki [2]	Ki [3]	EC50 [4]	Emax [4]	EC50 [5]	Emax [5]	EC50 [6, 7]	Emax [6, 8]	EC50 (nm) DOR [5]	% stimulation DOR [5]	EC50 (nm) KOR [6, 7]	% stimulation KOR [6, 8]
Cc1cc(O)cc(C)c1C[C@H](N)C(=O)N(C)[C@@H]1CCNc2ccc(Cc3ccccc3)cc21 [Compound 1001]	0.9 ± 0.3 nM	15.7 ± 3.7 nM	116 ± 30 nM	3 ± 0.31 nM	80.6 ± 4.7%	410 ± 138 nM	12.6 ± 5.5%	488 ± 142 nM	3.9 ± 0.9%				
Cc1cc(O)cc(C)c1C[C@H](N)C(=O)N(C)[C@H]1CCNc2ccc(Cc3ccccc3)cc21 [Compound 1002]	0.8 ± 0.04 nM	8.5 ± 0.2 nM	4.1 ± 0.4 nM	0.463 ± 0.1 nM	65.6 ± 4.4%		2.2 ± 2.2%	7.2 ± 0.4 nM	8.3 ± 2.4%				
Cc1cc(O)cc(C)c1C[C@H](N)C(=O)N[C@@H]1CCN(C)c2ccc(Cc3ccccc3)cc21 [Compound 1004]	0.555 ± 0.242 nM	7.3 ± 3.5 nM	27.8 ± 0.7 nM	4 ± 0.9 nM	102 ± 4.6%	486 nM	4.3 ± 4.3%	2220 ± 1020 nM	44 ± 8.2%				
Cc1cc(O)cc(C)c1C[C@H](N)C(=O)N[C@H]1CCN(C)c2ccc(Cc3ccccc3)cc21 [Compound 1005]	71.4 ± 18.4 nM	138 ± 29.8 nM	632 ± 78 nM	214 ± 41 nM	72.2 ± 3.6%		0%		1.6 ± 1.4%				
CCCN1CC[C@@H](NC(=O)[C@@H](N)Cc2c(C)cc(O)cc2C)c2cc(Cc3ccccc3)ccc21 [Compound 1006]	0.34 ± 0.21 nM	1.72 ± 0.61 nM	71.7 ± 20 nM	16.4 ± 8.18 nM	83.1 ± 3.25%	2330 ± 1030 nM	39.3 ± 5.45%	5010 ± 1020 nM	38.2 ± 3.42%				
Cc1ccc(Cc2ccc3c(c2)[C@H](NC(=O)[C@@H](N)Cc2c(C)cc(O)cc2C)CCN3)cc1 [Compound 1007]	0.11 nM	6.1 nM	18 nM		99%		13%		14%				
Cc1ccc(Cc2ccc3c(c2)[C@@H](NC(=O)[C@@H](N)Cc2c(C)cc(O)cc2C)CCN3)cc1 [Compound 1008]	11 nM	582 nM	50 nM		55%		3%		0%				
Cc1cc(O)cc(C)c1C[C@H](N)C(=O)N[C@@H]1CCNc2ccc(Cc3ccc(F)cc3)cc21 [Compound 1009]	0.07 nM	4 nM	6.6 nM		69%		16%		9%				
CCCC(=O)N1CC[C@@H](NC(=O)[C@@H](N)Cc2c(C)cc(O)cc2C)c2cc(CC3Cc4ccccc4C3)ccc21 [Compound 1034]	0.13 ± 0.02 nM	0.38 ± 0.07 nM	25.5 ± 0.85 nM	4.08 ± 1.58 nM	63.2 ± 12.6%					dns	dns		
Cc1cc(O)cc(C)c1C[C@H](N)C(=O)N[C@@H]1CCNc2ccc(CC3Cc4cccc(O)c4C3)cc21 (stereo partly drawn) [Compound 1036, (2S)-2-amino-N-((4R)-6-((4-hydroxy-2,3-dihydro-1H-inden-2-yl)methyl)-1,2,3,4-tetrahydroquinolin-4-yl)-3-(4-hydroxy-2,6-dimethylphenyl)propanamide]	0.18 ± 0.03 nM	6.01 ± 1.31 nM	20.6 ± 16.3 nM	4.93 ± 1.15 nM	69.1 ± 5.74%					dns	dns		
Cc1cc(O)cc(C)c1C[C@H](N)C(=O)N[C@@H]1CCNc2ccc(CC3Cc4ccc(O)cc4C3)cc21 (stereo partly drawn) [Compound 1038]	0.73 nM	19.9 ± 4.12 nM	38.5 nM	11.9 ± 4.96 nM	16.2 ± 3.43%	261 nM	10.5%						
Cc1cc(O)cc(C)c1C[C@H](N)C(=O)N[C@@H]1CCNc2c(Cc3ccccc3)cccc21 [Compound 1039]	57.7 nM	246 nM	977 nM	988 nM	17.9%					dns	dns		
CC(=O)N1CC[C@@H](NC(=O)[C@@H](N)Cc2c(C)cc(O)cc2C)c2cc(Cc3ccccc3)cc(Cc3ccccc3)c21 [Compound 1042]	0.35 nM	0.35 nM	12.1 nM	14.7 nM	75.1%	14.2 nM	30.1%						
Cc1cc(O)cc(C)c1C[C@H](N)C(=O)N[C@@H]1CCNc2ccc(CC3Cc4ccccc4C3C)cc21 (stereo partly drawn) [Compound 1043]	0.43 ± 0.18 nM	12 ± 1.17 nM	35.7 ± 23.6 nM	3.21 ± 1.25 nM	92.4 ± 8.06%					dns	dns		
COC(=O)N1CC[C@@H](NC(=O)[C@@H](N)Cc2c(C)cc(O)cc2C)c2cc(CC3Cc4ccccc4C3)ccc21 [Compound 1044]	0.09 ± 0.02 nM	0.26 ± 0.05 nM	10.4 nM	0.4 nM	82.5%					dns	dns		
COc1cc2c(cc1Cc1ccccc1)[C@H](NC(=O)[C@@H](N)Cc1c(C)cc(O)cc1C)CCN2 [Compound 1045]	0.26 ± 0.09 nM	2.84 ± 0.78 nM	8.51 nM	8.03 ± 3.15 nM	98.4 ± 2.54%	135 nM	32.5%						
Cc1cc(O)cc(C)c1C[C@H](N)C(=O)N[C@@H]1CCNc2cc(O)c(Cc3ccccc3)cc21 [Compound 1046]	0.33 ± 0.14 nM	2.74 ± 0.05 nM	15.1 nM	9.86 ± 3.79 nM	94.7 ± 4.19%	237 nM	20.3%						
Cc1cc(O)cc(C)c1C[C@H](N)C(=O)N[C@@H]1CCNc2ccc(Cn3n[n+]([O-])c4ccc(Cl)cc43)cc21 [Compound 1047]	0.35 ± 0.05 nM	3.54 ± 0.83 nM	22.5 ± 8.83 nM	3.45 ± 0.67 nM	81.6 ± 1.48%					dns	dns		
CCCc1cc(Br)cc2c1NCC[C@H]2NC(=O)[C@@H](N)Cc1c(C)cc(O)cc1C [Compound 1058]	21.7 ± 8.06 nM	45.9 ± 22.6 nM	208 ± 16 nM	859 nM	12.6%							dns	dns
Cc1cc(O)cc(C)c1C[C@H](N)C(=O)N[C@@H]1CCNc2c(C(=O)Nc3ccccc3)cc(Cc3ccccc3)cc21 [Compound 1103]	0.36 nM	2.17 nM	29.4 nM	27.3 nM	62.7%					dns	dns		
Cc1cc(O)cc(C)c1C[C@H](N)C(=O)N[C@@H]1CCCc2ccc(Oc3ccccc3)cc21 [Compound 1118]	0.33 ± 0.09 nM	13 ± 1.01 nM	38.5 ± 5.39 nM	43 ± 14 nM	41.9 ± 8.97%		1.65 ± 1.65%						

Reference: patent US10519114B2, “Peptidomimetics and methods of using the same” (The Regents of the University of Michigan, priority 2016, dated 2019)
